Data set [1] has as its system phosphorylation of H2AX in U251 cells. As to the kind of experiment: Phosphorylation of γ-H2AX assay (immunoblot), U251. The class given is cell-based, human. To be noted: U251, 16 hours. How it is done: U251 or normal human astrocyte cells were plated in six-well plates and incubated with various concentrations of QBS10072S for 16 hours. Proteins were extracted from cells using cell lysis buffer (Cell Signaling Technologies, Danvers, MA) supplemented with proteinase and a phosSTOP phosphatase inhibitor cocktail (Sigma-Aldrich, St. Louis, MO). Proteins were separated by SDS-PAGE and transferred onto polyvinylidene difluoride membranes, which were then probed with primary antibodies followed by horseradish peroxidase-conjugated secondary antibody, and visualized by ECL (Thermo-Fischer, S. San Francisco, CA). Antibodies specific for γH2AX (#2577), LAT1 (#5347), and beta-actin (#4970) were obtained from Cell Signaling Technologies.
A general note: In western blotting, separated proteins are transferred to a membrane and probed.

Data set [2] deals with LN229 intracerebral human GBM xenograft. As to the kind of experiment: LN229 intracerebral human GBM xenograft in athymic mice (BLI, survival). The data set is classed as in vivo, mouse. To be noted: for median survival time: vehicle 56; for %TGI: day 53, three doses. How it is done: (§1) Five-week-old female athymic mice (nu/nu, homozygous: Simonsen Laboratories, Gilroy, CA), housed under aseptic conditions, received intracranial tumor cell injection as previously described and as approved by the University of California San Francisco Institutional Animal Care and Use Committee, Protocol #: AN111064-03. Briefly, mice were anesthetized by intraperitoneal injection of ketamine (100 mg/kg) and xylazine (10 mg/kg) and injected with 3 μL of tumor cell suspension (300,000 cells total) into the right caudate-putamen. Coordinates: 3 mm to the right from bregma, on top of the coronal suture, and 3.5 mm depth. Injection rate: ~30 second/uL. For treatment studies, eight mice were used for each group for LN229 studies and nine mice per group for U251 studies. Treatments began when tumors entered the log-phase of growth as measured by luminescence, for the LN229 experiment on Day 21 and for U251 experiments on Day 14.
(§2) Dosing levels and frequency are described in the figure legends.
(§3) For bioluminescence imaging (BLI), mice were anesthetized as above, then administered 150 mg/kg of luciferin (D-luciferin potassium salt, Gold Biotechnology, St. Louis, MO) via intraperitoneal injection. Ten minutes after luciferin injection, mice were examined for tumor bioluminescence with an IVIS Lumina imaging station and Living Image software (Caliper Life Sciences, Alameda, CA), and regions of interest were recorded as photons per second per steradian per square cm.
For orientation: Xenograft models place foreign cells or tissue in a host animal.

For data set [3], the system named is U251 intracerebral human GBM xenograft. As to the kind of experiment: U251 intracerebral human GBM xenograft in athymic mice (BLI, survival). The data set is classed as in vivo, mouse. How it is done: as §1, §2, §3
Mice were anesthetized via inhalation of 2.5% isoflurane with 1 L of oxygen per minute for five minutes prior to being positioned on an irradiation platform located 16.3 cm from a cesium-137 source (JL Shepherd & Associates, San Fernando, CA). Eyes, respiratory tracts, and bodies were protected with lead shielding. Mice received whole-brain irradiation at a dose rate of 247 cGy/min until 1.5 Gy radiation had been administered. After irradiation, animals were monitored until recovery. Mice were irradiated once daily for five consecutive days. All mice received the first radiation dose when tumors were in a log-phase growth (Day 14) as determined by BLI.
Tumor-bearing mice were treated with temozolomide (TMZ) 4 mg/kg via oral gavage, starting on day 14 post U251 cell injection once daily for five days - concurrent therapy with RT. TMZ was obtained from the UCSF hospital pharmacy and formulated with the Ora-Plus suspending vehicle (Perrigo, Dublin, Ireland) with a working concentration of 1 mg/mL.

Another data set deals with GBM cell lines. As to the kind of experiment: Cell viability assay (CellTiter-Glo), multiple GBM cell lines. The data set is classed as cell-based. The following applies: Homo sapiens; range over cell lines; read-out: EC50s, viability loss in multiple GBM cell lines. How it is done: (§4) In vitro activity of QBS10072S was assessed using a modified clonogenic cell viability assay in 96-well clear-bottom plates. For the LLC-PK1 inducible LAT1-expressing cell line, 1000 cells/well were plated and cells were treated with either butyrate alone (non-induced) or with both butyrate and doxycycline (induced) as described above. For GBM cell lines, 2000 cells/well were plated. On day 2 (GBM) or day 3 (LLC-PK1) after original plating, cells were washed twice with PBS and incubated with 50 μL of various concentrations of QBS10072S in PBS in at least quadruplicate. After 30 minutes at 37°C, 200 μL of growth medium was added to each well. Clonal populations were allowed to grow until the control wells (mock treatment) were near confluence (7 to 10 days). At this point, 170 μL media were removed and 60 μL CellTiter-Glo® (Promega, Madison, WI) were added to each well. Plates were placed on an orbital shaker for three minutes to lyse the cells and then incubated for an additional 10 minutes at RT to stabilize the luminescent signal. Luminescence was recorded using an EnSpire® Multimode Plate Reader (Perkin Elmer). Background (luminescence from wells incubated with 100 μM melphalan or lomustine) was subtracted and data were normalized to the control. EC50s were determined by non-linear regression using GraphPad Prism.
For orientation: Cellular ATP, detected with luciferase, serves as a proxy for viable cell number.

The test system of another data set is 8MGBA cells. The experiment in a line: Cell viability assay (CellTiter-Glo), 8MGBA. The data set is classed as cell-based. To be noted: Homo sapiens, 8-MG-BA; Cell Line: 8MGBA; read-out: LC50 (μM ± SD). The method, then: as §4
In another data set the test system is U251 cells. The experiment in a line: Cell viability assay (CellTiter-Glo), U251. The class given is cell-based. The following applies: Homo sapiens, U-251; Cell Line: U251; read-out: LC50 (μM ± SD). How it is done: as §4
The nature of data set [4]: Tolerability in non-tumor-bearing nude mice. The data set is classed as in vivo, mouse. To be noted: 5 or 10 mg/kg IV once a week for four weeks. The method, then: The tumor-suppressive activity of QBS10072S was evaluated in two orthotopic murine models of GBM using luciferase-expressing U251 and LN229 cell lines. Tumor volume was monitored by BLI measurement. The tolerability of QBS10072S was first tested by dosing 5 or 10 mg/kg IV once a week for four weeks into non-tumor-bearing nude mice (Figure 6). The body weights and white blood cell counts were not affected by this treatment, so QBS10072S was tested at various doses up to 10 mg/kg in the GBM models.
Figure 6 Tolerability of QBS10072S in nude mice Non-tumor-bearing nude mice were dosed IV with vehicle or QBS10072S (5 or 10 mg/kg) once a week for four weeks (arrows). Body weights were measured every three days and complete blood counts were determined once a week for seven weeks. A: Percent change in body weight over the course of the study, normalized to pre-dose weight. B: White blood cell (WBC) counts for each study arm. Horizontal bars represent the normal range of WBCs in these mice.

The next data set relates to DBTRG cells. As to the kind of experiment: Cell viability assay (CellTiter-Glo), DBTRG. The data set is classed as cell-based. To be noted: Homo sapiens; Cell Line: DBTRG; read-out: LC50 (μM ± SD). The method, then:
as §4

Data set [5] is described as follows: Cytotoxicity in normal human astrocytes (CellTiter-Glo). The data set is classed as cell-based. To be noted: normal human astrocytes (NHA), read-out: LC50.
Procedure: In vitro activity of QBS10072S was assessed using a modified clonogenic cell viability assay in 96-well clear-bottom plates. […] For GBM cell lines, 2000 cells/well were plated. On day 2 (GBM) or day 3 (LLC-PK1) after original plating, cells were washed twice with PBS and incubated with 50 μL of various concentrations of QBS10072S in PBS in at least quadruplicate. After 30 minutes at 37°C, 200 μL of growth medium was added to each well. Clonal populations were allowed to grow until the control wells (mock treatment) were near confluence (7 to 10 days). At this point, 170 μL media were removed and 60 μL CellTiter-Glo® (Promega, Madison, WI) were added to each well. Plates were placed on an orbital shaker for three minutes to lyse the cells and then incubated for an additional 10 minutes at RT to stabilize the luminescent signal. Luminescence was recorded using an EnSpire® Multimode Plate Reader (Perkin Elmer). Background (luminescence from wells incubated with 100 μM melphalan or lomustine) was subtracted and data were normalized to the control. EC50s were determined by non-linear regression using GraphPad Prism.
Cells were incubated with a titration of QBS10072S or melphalan and cell viability was measured by CellTiter-Glo. LC50 values for each compound were determined.
The mark [6] stands for this setting: 2 mg/kg IV once every two weeks.
Where [7] appears, read: 4 mg/kg IV once every two weeks.
Setting [8] is: 8 mg/kg IV once every two weeks.

One molecule from publication PMC8482806, “A Novel Blood-Brain Barrier-Permeable Chemotherapeutic Agent for the Treatment of Glioblastoma” (Cureus, 2021) can be followed below.

In the case of `Cc1ccc(N(CCCl)CCCl)cc1C[C@H](N)CC(=O)O` [QBS10072S, (+)-(3S)-amino-4-[5-[bis(2-chloroethyl)amino]-2-methyl-phenyl]butanoic acid], the “phosphorylation of H2AX” value in data set [1] is “dose-dependent phosphorylation of H2AX”. For the same molecule, the median survival time in [2] (setting [6]) is 66.5 days; in data set [2] (setting [7]) it was 71 days; in data set [2] (setting [8]), 74 days; in data set [3] (10 mg/kg IV once a week for six weeks, vehicle 37), 70 days; in [3] (QBS10072S 10 mg/kg once a week for 4 weeks + RT 1.5 Gy daily for 5 days, vehicle 35) it was 64 days; in data set [3] (QBS10072S alone, 10 mg/kg once a week for 4 weeks, vehicle 35), 45 days. In addition, the “%TGI” value in [2] (setting [6]) was determined as 72%; in data set [2] (setting [7]), 73%; in data set [2] (setting [8]) it was 84%; in [3] (day 35, QBS10072S alone, 10 mg/kg once a week for 4 weeks) it was 86%; in data set [3] (day 35, combination of QBS10072S 10 mg/kg once a week for 4 weeks and RT 1.5 Gy once daily for 5 days), 96%. Also, the “body weight loss over the course of the study” value in data set [3] (10 mg/kg IV once a week for six weeks) was “no significant body weight loss”. The “tumor growth inhibition (TGI) vs. vehicle” value in [3] (day 35, 10 mg/kg IV once a week for six weeks) is 95%. For the same molecule, the EC50 in the data set with GBM cell lines was in the range of 12 to 40 µM. Besides, the CC50 in the data set with 8MGBA cells turned out to be 34 ± 20 µM; with U251 cells, 12 ± 2 µM; with DBTRG cells, 5 ± 2 µM. Also, the body weights entry in data set [4] was “not affected”. Further, the “white blood cell counts” value in data set [4] is on record as “not affected”. Besides, the CC50 at 30 min in data set [5] is > 10 µM.
